Results published in patent publication US7902373B2 (Pfizer Inc, priority 2006, dated 2011).

Biological target: human recombinant H-PGDS (Homo sapiens, UniProt O60760)
Assay: Fluorescence intensity h-PGDS TBA enzyme assay
Type: biochemical
Settings: Examples up to 622 (and 3a, 3b)

Sequence of human recombinant H-PGDS (O60760 whole entry): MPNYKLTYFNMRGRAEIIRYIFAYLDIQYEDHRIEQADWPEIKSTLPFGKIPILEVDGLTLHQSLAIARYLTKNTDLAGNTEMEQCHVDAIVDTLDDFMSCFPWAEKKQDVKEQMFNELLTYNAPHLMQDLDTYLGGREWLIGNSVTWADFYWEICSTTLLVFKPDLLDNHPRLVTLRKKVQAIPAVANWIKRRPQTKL

Row | Compound | IC50
1 | CCOC(=O)N1CCC(NC(=O)c2ccc(-c3cccc(F)c3)nc2)CC1 [Example 32, Ethyl 4-({[6-(3-fluorophenyl)pyridin-3-yl]carbonyl}amino)piperidine-1-carboxylate] | 0.387 nM
2 | CCOC(=O)N1CCC(NC(=O)c2ccc(-c3cc(F)cc(F)c3)nc2)CC1 [Example 33, Ethyl 4-({[6-(3,5-difluorophenyl)pyridin-3-yl]carbonyl}amino)piperidine-1-carboxylate] | 2.41 nM
3 | O=C(NC1CCN(CC(F)(F)F)CC1)c1ccc(-c2cc(F)cc(F)c2)nc1 [Example 34, 6-(3,5-Difluorophenyl)-N-[1-(2,2,2-trifluoroethyl)piperidin-4-yl]nicotinamide] | 1.85 nM
4 | COc1cnc(-c2ccccn2)nc1N1CCC(NC(=O)c2ccc(-c3cccc(F)c3)nc2)CC1 [Example 35, 6-(3-Fluorophenyl)-N-(1-(5-methoxy-2-(pyridin-2-yl)pyrimidin-4-yl)piperidin-4-yl)nicotinamide] | 2.95 nM
5 | O=C(NC1CCNCC1)c1ccc(-c2cccc(F)c2)nc1 [Example 36, 6-(3-Fluorophenyl)-N-(piperidin-4-yl)nicotinamide] | 7.11 nM
6 | O=C(NC1CCN(c2cc(Nc3cc[nH]n3)ncn2)CC1)c1ccc(-c2cccc(F)c2)nc1 [Example 37, N-(1-(6-(1H-Pyrazol-3-ylamino)pyrimidin-4-yl)piperidin-4-yl)-6-(3-fluorophenyl)nicotinamide] | 0.478 nM
7 | O=C(NC1CCN(c2ncnc3ccc(Cl)cc23)CC1)c1ccc(-c2cccc(F)c2)nc1 [Example 38, N-(1-(6-Chloroquinazolin-4-yl)piperidin-4-yl)-6-(3-fluorophenyl)nicotinamide] | 1.04 nM
8 | O=C(NC1CCN(c2nnnn2-c2ccccc2)CC1)c1ccc(-c2cccc(F)c2)nc1 [Example 39, 6-(3-Fluorophenyl)-N-(1-(1-phenyl-1H-tetrazol-5-yl)piperidin-4-yl)nicotinamide] | 0.924 nM
9 | Cc1ccc(C#N)c(N2CCC(NC(=O)c3ccc(-c4cccc(F)c4)nc3)CC2)n1 [Example 41, N-[1-(3-Cyano-6-methylpyridin-2-yl)piperidin-4-yl]-6-(3-fluorophenyl)nicotinamide] | 0.893 nM
10 | O=C(NC1CCN(c2nccnc2-c2ccccc2)CC1)c1ccc(-c2cccc(F)c2)nc1 [Example 42, 6-(3-Fluorophenyl)-N-[1-(3-phenylpyrazin-2-yl)piperidin-4-yl]nicotinamide] | 8.58 nM
11 | O=C(NC1CCN(c2nc3ccccc3nc2NCCO)CC1)c1ccc(-c2cccc(F)c2)nc1 [Example 43, 6-(3-Fluorophenyl)-N-(1-{3-[(2-hydroxyethyl)amino]quinoxalin-2-yl}piperidin-4-yl)nicotinamide] | 2.18 nM
12 | COc1ccc(-c2cnc(C)nc2N2CCC(NC(=O)c3ccc(-c4cccc(F)c4)nc3)CC2)cc1OC [Example 44, N-{1-[5-(3,4-Dimethoxyphenyl)-2-methylpyrimidin-4-yl]piperidin-4-yl}-6-(3-fluorophenyl)nicotinamide] | 1.36 nM
13 | Cc1cc(N2CCC(NC(=O)c3ccc(-c4cccc(F)c4)nc3)CC2)nc(N)n1 [Example 45, N-[1-(2-Amino-6-methylpyrimidin-4-yl)piperidin-4-yl]-6-(3-fluorophenyl)nicotinamide] | 0.773 nM
14 | Cc1nc(C(F)(F)F)nc(N2CCC(NC(=O)c3ccc(-c4cccc(F)c4)nc3)CC2)c1C [Example 46, N-{1-[5,6-Dimethyl-2-(trifluoromethyl)pyrimidin-4-yl]piperidin-4-yl}-6-(3-fluorophenyl)nicotinamide] | 1.73 nM
15 | Cc1cc(C2CCCN2c2ccnc(N3CCC(NC(=O)c4ccc(-c5cccc(F)c5)nc4)CC3)n2)no1 (stereo not drawn) [Example 47, 6-(3-Fluorophenyl)-N-(1-{4-[2-(5-methylisoxazol-3-yl)pyrrolidin-1-yl]pyrimidin-2-yl}piperidin-4-yl)nicotinamide] | 2.92 nM
16 | Cc1nc(-c2ccccn2)nc(N2CCC(NC(=O)c3ccc(-c4cccc(F)c4)nc3)CC2)c1Cl [Example 48, N-[1-(5-Chloro-6-methyl-2-pyridin-2-ylpyrimidin-4-yl)piperidin-4-yl]-6-(3-fluorophenyl)nicotinamide] | 2.9 nM
17 | COc1cc(N2CCC(NC(=O)c3ccc(-c4cccc(F)c4)nc3)CC2)ncn1 [Example 49, 6-(3-Fluorophenyl)-N-[1-(6-methoxypyrimidin-4-yl)piperidin-4-yl]nicotinamide] | 0.619 nM
18 | O=C(NC1CCN(c2ccc(C(=O)N3CCOCC3)cn2)CC1)c1ccc(-c2cccc(F)c2)nc1 [Example 50, 6-(3-Fluorophenyl)-N-{1-[5-(morpholin-4-ylcarbonyl)pyridin-2-yl]piperidin-4-yl}nicotinamide] | 0.681 nM
19 | Cn1nnnc1N1CCC(NC(=O)c2ccc(-c3cccc(F)c3)nc2)CC1 [Example 51, 6-(3-Fluoro-phenyl)-N-[1-(1-methyl-1H-tetrazol-5-yl)-piperidin-4-yl]-nicotinamide] | 0.266 nM

More lines, now with the values ahead:

Row | IC50 | Compound
20 | 0.332 nM | COc1ccc2c(N3CCC(NC(=O)c4ccc(-c5cccc(F)c5)nc4)CC3)ncnc2c1 [Example 52, 6-(3-Fluorophenyl)-N-[1-(7-methoxyquinazolin-4-yl)piperidin-4-yl]nicotinamide]
21 | 1.03 nM | O=C(NC1CCN(c2cc(OCc3ccccn3)ncn2)CC1)c1ccc(-c2cccc(F)c2)nc1 [Example 53, 6-(3-Fluorophenyl)-N-{1-[6-(pyridin-2-ylmethoxy)pyrimidin-4-yl]piperidin-4-yl}nicotinamide]
22 | 1.31 nM | Cn1ccnc1COc1cc(N2CCC(NC(=O)c3ccc(-c4cccc(F)c4)nc3)CC2)ncn1 [Example 54, 6-(3-Fluorophenyl)-N-(1-{6-[(1-methyl-1H-imidazol-2-yl)methoxy]pyrimidin-4-yl}piperidin-4-yl)nicotinamide]
23 | 1.67 nM | COc1ccc(-c2cc(N3CCC(NC(=O)c4ccc(-c5cccc(F)c5)nc4)CC3)ncn2)cc1OC [Example 55, N-{1-[6-(3,4-Dimethoxyphenyl)pyrimidin-4-yl]piperidin-4-yl}-6-(3-fluorophenyl)nicotinamide]
24 | 12.8 nM | Cn1nccc1-c1nc(N2CCC(NC(=O)c3ccc(-c4cccc(F)c4)nc3)CC2)nc2ccccc12 [Example 56, 6-(3-Fluorophenyl)-N-{1-[4-(1-methyl-1H-pyrazol-5-yl)quinazolin-2-yl]piperidin-4-yl}nicotinamide]
25 | 0.285 nM | CCn1cnc2c(N3CCC(NC(=O)c4ccc(-c5cccc(F)c5)nc4)CC3)ncnc21 [Example 57, N-[1-(9-Ethyl-9H-purin-6-yl)piperidin-4-yl]-6-(3-fluorophenyl)nicotinamide]
26 | 8.25 nM | O=C(NC1CCN(c2ccnc(N3CCc4ccccc4C3)n2)CC1)c1ccc(-c2cccc(F)c2)nc1 [Example 58, N-{1-[2-(3,4-Dihydroisoquinolin-2(1H)-yl)pyrimidin-4-yl]piperidin-4-yl}-6-(3-fluorophenyl)nicotinamide]
27 | 0.822 nM | O=C(NC1CCN(c2nccc(NCc3ccccn3)n2)CC1)c1ccc(-c2cccc(F)c2)nc1 [Example 59, 6-(3-Fluorophenyl)-N-(1-{4-[(pyridin-2-ylmethyl)amino]pyrimidin-2-yl}piperidin-4-yl)nicotinamide]
28 | 0.593 nM | O=C(NC1CCN(c2cnccn2)CC1)c1ccc(-c2cccc(F)c2)nc1 [Example 60, 6-(3-Fluorophenyl)-N-(1-pyrazin-2-ylpiperidin-4-yl)nicotinamide]
29 | 0.365 nM | O=C(NC1CCN(c2nncc3ccccc23)CC1)c1ccc(-c2cccc(F)c2)nc1 [Example 61, 6-(3-Fluorophenyl)-N-(1-phthalazin-1-ylpiperidin-4-yl)nicotinamide]
30 | 3.33 nM | Cn1ccnc1-c1nc(N2CCC(NC(=O)c3ccc(-c4cccc(F)c4)nc3)CC2)nc2ccccc12 [Example 62, 6-(3-Fluorophenyl)-N-{1-[4-(1-methyl-1H-imidazol-2-yl)quinazolin-2-yl]piperidin-4-yl}nicotinamide]
31 | 0.183 nM | O=C(NC1CCN(c2ncnc3ncccc23)CC1)c1ccc(-c2cccc(F)c2)nc1 [Example 63, 6-(3-Fluorophenyl)-N-(1-pyrido[2,3-d]pyrimidin-4-ylpiperidin-4-yl)nicotinamide]
32 | 0.246 nM | NC(=O)c1cccnc1N1CCC(NC(=O)c2ccc(-c3cccc(F)c3)nc2)CC1 [Example 64, N-{1-[3-(Aminocarbonyl)pyridin-2-yl]piperidin-4-yl}-6-(3-fluorophenyl)nicotinamide]
33 | 0.354 nM | O=C(NC1CCN(c2ncccc2Cl)CC1)c1ccc(-c2cccc(F)c2)nc1 [Example 65, N-[1-(3-Ahloropyridin-2-yl)piperidin-4-yl]-6-(3-fluorophenyl)nicotinamide]
34 | 0.627 nM | CCOC(=O)c1cccnc1N1CCC(NC(=O)c2ccc(-c3cccc(F)c3)nc2)CC1 [Example 66, Ethyl 2-[4-({[6-(3-fluorophenyl)pyridin-3-yl]carbonyl}amino)piperidin-1-yl]nicotinate]
35 | 0.955 nM | COc1ccnc(N2CCC(NC(=O)c3ccc(-c4cccc(F)c4)nc3)CC2)c1C#N [Example 67, N-[1-(3-Cyano-4-methoxypyridin-2-yl)piperidin-4-yl]-6-(3-fluorophenyl)nicotinamide]
36 | 0.361 nM | NC(=O)c1ccc(N2CCC(NC(=O)c3ccc(-c4cccc(F)c4)nc3)CC2)nc1 [Example 68, N-{1-[5-(Aminocarbonyl)pyridin-2-yl]piperidin-4-yl}-6-(3-fluorophenyl)nicotinamide]
37 | 1.21 nM | Cc1cc(C)c(C#N)c(N2CCC(NC(=O)c3ccc(-c4cccc(F)c4)nc3)CC2)n1 [Example 69, N-[1-(3-Cyano-46-dimethylpyridin-2-yl)piperidin-4-yl]-6-(3-fluorophenyl)nicotinamide]
38 | 3.26 nM | N#Cc1ccc(C(F)(F)F)nc1N1CCC(NC(=O)c2ccc(-c3cccc(F)c3)nc2)CC1 [Example 70, N-{1-[3-Cyano-6-(trifluoromethyl)pyridin-2-yl]piperidin-4-yl}-6-(3-fluorophenyl)nicotinamide]
39 | 2.18 nM | Cc1csc2c(N3CCC(NC(=O)c4ccc(-c5cccc(F)c5)nc4)CC3)ncnc12 [Example 71, 6-(3-Fluorophenyl)-N-[1-(7-methylthieno[3,2-d]pyrimidin-4-yl)piperidin-4-yl]nicotinamide]
